Source: patent US20110251286A1, “Crystalline salts and/or co-crystals of O-desmethyltramadol” (GRUENENTHAL GmbH, priority 2010, published 2011)

Assays:
[1] = Release in artificial intestinal juice; format: physicochemical; details: permeable bag, amount calculated on 100 mg free base
Protocol: Investigations on release were carried out in a Sotax AT7 smart release apparatus with UV measurement (Perkin Elmer photometer).
A vessel with Wood apparatus was used (for intrinsic release).
A pressing of 0.5 cm^2 surface area (diameter 8 mm) was produced with a force of 200 N using approximately 100 mg of active ingredient.
Release was carried out in a release medium, which is composed as described below: • Intestinal juice without pancreas powder, pH 6.8 (analogous to Ph. Eur.); 250.0 ml 6.8 g of potassium dihydrogenphosphate R+0.896 g of NaOH+water to 1000.0 ml.
Release was carried out in a release volume of in each case 500±5 ml at a temperature of the release medium of 37±1° C. with a stirring speed of 100±5 rpm.
The content determination was carried out by means of spectroscopic methods (UV spectroscopy, wavelength: 271 nm, cuvette: 10 mm). Sample taking was carried out manually.
In this release experiment, the individual compounds were placed in a permeable bag in an amount in each case calculated on 100 mg of the free base.
The results, expressed in percent of the substance released, are reproduced in the following tables. In this case, the compounds denote: HCl: hydrochloride; A: cinnamate; B: palmitate; C: decanoate; E: hemi-fumarate and F: hemi-sebacate.

[2] = Dynamic vapor sorption (DVS): sorption and desorption of moisture; format: physicochemical
Protocol: Investigations on the sorption and desorption of moisture (dynamic vapor sorption, DVS): DVS measurements were carried out on an apparatus of the type DVS 1000 from Porotec. The evaluation of the measurements was carried out using software from Surface Measurement Systems. At a temperature between 23° C. and 26° C., starting from a relative humidity of 50%, within 240 minutes the relative humidity first increased to 90% and then fell to 0%. This cycle was repeated a second time. The DVS charts shown are isothermal recordings (plots) of the change in the mass in % (change in mass—dry) as a function of the desired relative humidity in % (target RH). Correspondingly, the axes of the graphs are marked by ΔM [%] and RH [%]. The measurement curves of the first sorption are designated by 1-S, the subsequent first desorption by 1-D, the second sorption by 2-S and the second desorption by 2-D. Advantageously, mass changes between the sorption and desorption phase are as low as possible.

CCCCCCCCCC(=O)O.CN(C)CC1CCCCC1(O)c1cccc(O)c1 (stereo not drawn) [C-1]
Release in artificial intestinal juice, percent of the substance released ([1]; t 2 min): 79.57%
Release in artificial intestinal juice, percent of the substance released ([1]; t 4 min): 93.67%
Release in artificial intestinal juice, percent of the substance released ([1]; t 6 min): 99.13%
Release in artificial intestinal juice, percent of the substance released ([1]; t 8 min): 99.87%
Release in artificial intestinal juice, percent of the substance released ([1]; t 10 min): 99.63%
Release in artificial intestinal juice, percent of the substance released ([1]; t 12 min): 99.80%
Release in artificial intestinal juice, percent of the substance released ([1]; t 15 min): 99.92%
Release in artificial intestinal juice, percent of the substance released ([1]; t 30 min): 100.27%

CN(C)CC1CCCCC1(O)c1cccc(O)c1.CN(C)CC1CCCCC1(O)c1cccc(O)c1.O=C(O)CCCCCCCCC(=O)O (stereo not drawn) [F-1]
Release in artificial intestinal juice, percent of the substance released ([1]; t 2 min): 90.31%
Release in artificial intestinal juice, percent of the substance released ([1]; t 4 min): 95.86%
Release in artificial intestinal juice, percent of the substance released ([1]; t 6 min): 98.37%
Release in artificial intestinal juice, percent of the substance released ([1]; t 8 min): 99.10%
Release in artificial intestinal juice, percent of the substance released ([1]; t 10 min): 98.48%
Release in artificial intestinal juice, percent of the substance released ([1]; t 12 min): 98.55%
Release in artificial intestinal juice, percent of the substance released ([1]; t 15 min): 99.15%
Release in artificial intestinal juice, percent of the substance released ([1]; t 30 min): 98.74%

CN(C)CC1CCCCC1(O)c1cccc(O)c1.CN(C)CC1CCCCC1(O)c1cccc(O)c1.O=C(O)CCCCCCCCC(=O)O (stereo not drawn) [F-2]
Release in artificial intestinal juice, percent of the substance released ([1]; t 2 min): 96.05%
Release in artificial intestinal juice, percent of the substance released ([1]; t 4 min): 99.26%
Release in artificial intestinal juice, percent of the substance released ([1]; t 6 min): 100.16%
Release in artificial intestinal juice, percent of the substance released ([1]; t 8 min): 1.21%
Release in artificial intestinal juice, percent of the substance released ([1]; t 10 min): 100.92%
Release in artificial intestinal juice, percent of the substance released ([1]; t 12 min): 101.24%
Release in artificial intestinal juice, percent of the substance released ([1]; t 15 min): 101.22%
Release in artificial intestinal juice, percent of the substance released ([1]; t 30 min): 101.26%

CN(C)C[C@H]1CCCC[C@]1(O)c1cccc(O)c1 [free base, (+)-(1R,2R)-3-[2-(dimethylamino)methyl-1-hydroxycyclohexyl]phenol]
ΔM Desorption ([2]; 1st cycle, RH 0.0 %): 0.00000%
ΔM Desorption ([2]; 1st cycle, RH 10.0 %): 0.00395%
ΔM Desorption ([2]; 1st cycle, RH 20.0 %): 0.00526%
ΔM Desorption ([2]; 1st cycle, RH 30.0 %): 0.00526%
ΔM Desorption ([2]; 1st cycle, RH 40.0 %): 0.00636%
ΔM Desorption ([2]; 1st cycle, RH 50.0 %): 0.00614%
ΔM Hysteresis ([2]; 1st cycle, RH 50.0 %): −0.00241%
ΔM Sorption ([2]; 1st cycle, RH 50.0 %): 0.00855%
ΔM Desorption ([2]; 1st cycle, RH 60.0 %): 0.00526%
ΔM Hysteresis ([2]; 1st cycle, RH 60.0 %): −0.00219%
ΔM Sorption ([2]; 1st cycle, RH 60.0 %): 0.00746%
ΔM Desorption ([2]; 1st cycle, RH 70.0 %): 0.00395%
ΔM Hysteresis ([2]; 1st cycle, RH 70.0 %): 0.00219%
ΔM Sorption ([2]; 1st cycle, RH 70.0 %): 0.00175%
ΔM Desorption ([2]; 1st cycle, RH 80.0 %): 0.00132%
ΔM Hysteresis ([2]; 1st cycle, RH 80.0 %): 0.00592%
ΔM Sorption ([2]; 1st cycle, RH 80.0 %): −0.00461%
ΔM Desorption ([2]; 1st cycle, RH 90.0 %): −0.01097%
ΔM Sorption ([2]; 1st cycle, RH 90.0 %): −0.01097%
ΔM Desorption ([2]; 2nd cycle, RH 0.0 %): −0.00461%
ΔM Sorption ([2]; 2nd cycle, RH 0.0 %): 0.00000%
ΔM Desorption ([2]; 2nd cycle, RH 10.0 %): −0.00132%
ΔM Hysteresis ([2]; 2nd cycle, RH 10.0 %): −0.00329%
ΔM Sorption ([2]; 2nd cycle, RH 10.0 %): 0.00197%
ΔM Desorption ([2]; 2nd cycle, RH 20.0 %): 0.00044%
ΔM Hysteresis ([2]; 2nd cycle, RH 20.0 %): −0.00351%
ΔM Sorption ([2]; 2nd cycle, RH 20.0 %): 0.00395%
ΔM Desorption ([2]; 2nd cycle, RH 30.0 %): 0.00132%
ΔM Hysteresis ([2]; 2nd cycle, RH 30.0 %): −0.00395%
ΔM Sorption ([2]; 2nd cycle, RH 30.0 %): 0.00526%
ΔM Desorption ([2]; 2nd cycle, RH 40.0 %): 0.00307%
ΔM Hysteresis ([2]; 2nd cycle, RH 40.0 %): −0.00395%
ΔM Sorption ([2]; 2nd cycle, RH 40.0 %): 0.00702%
ΔM Desorption ([2]; 2nd cycle, RH 50.0 %): 0.00395%
ΔM Hysteresis ([2]; 2nd cycle, RH 50.0 %): −0.00592%
ΔM Sorption ([2]; 2nd cycle, RH 50.0 %): 0.00987%
ΔM Desorption ([2]; 2nd cycle, RH 60.0 %): 0.00395%
ΔM Hysteresis ([2]; 2nd cycle, RH 60.0 %): −0.00724%
ΔM Sorption ([2]; 2nd cycle, RH 60.0 %): 0.01119%
ΔM Desorption ([2]; 2nd cycle, RH 70.0 %): 0.00329%
ΔM Hysteresis ([2]; 2nd cycle, RH 70.0 %): −0.00417%
ΔM Sorption ([2]; 2nd cycle, RH 70.0 %): 0.00746%
ΔM Desorption ([2]; 2nd cycle, RH 80.0 %): 0.00132%
ΔM Hysteresis ([2]; 2nd cycle, RH 80.0 %): 0.00197%
ΔM Sorption ([2]; 2nd cycle, RH 80.0 %): −0.00066%
ΔM Desorption ([2]; 2nd cycle, RH 90.0 %): −0.01031%
ΔM Sorption ([2]; 2nd cycle, RH 90.0 %): −0.01031%
ΔM Sorption ([2]; 3rd cycle, RH 0.0 %): −0.00461%
ΔM Sorption ([2]; 3rd cycle, RH 10.0 %): −0.0011%
ΔM Sorption ([2]; 3rd cycle, RH 20.0 %): 0.00066%
ΔM Sorption ([2]; 3rd cycle, RH 30.0 %): 0.00197%
ΔM Sorption ([2]; 3rd cycle, RH 40.0 %): 0.00461%
ΔM Sorption ([2]; 3rd cycle, RH 50.0 %): 0.00768%

CN(C)C[C@H]1CCCC[C@]1(O)c1cccc(O)c1.Cl [HCl-1]
Release in artificial intestinal juice, percent of the substance released ([1]; t 2 min): 99.16%
Release in artificial intestinal juice, percent of the substance released ([1]; t 4 min): 99.89%
Release in artificial intestinal juice, percent of the substance released ([1]; t 6 min): 98.77%
Release in artificial intestinal juice, percent of the substance released ([1]; t 8 min): 101.08%
Release in artificial intestinal juice, percent of the substance released ([1]; t 10 min): 100.57%
Release in artificial intestinal juice, percent of the substance released ([1]; t 12 min): 100.66%
Release in artificial intestinal juice, percent of the substance released ([1]; t 15 min): 99.62%
Release in artificial intestinal juice, percent of the substance released ([1]; t 30 min): 101.02%

CN(C)CC1CCCCC1(O)c1cccc(O)c1.O=C(O)C=Cc1ccccc1 (stereo not drawn) [A-1]
Release in artificial intestinal juice, percent of the substance released ([1]; t 2 min): 58.49%
Release in artificial intestinal juice, percent of the substance released ([1]; t 4 min): 74.11%
Release in artificial intestinal juice, percent of the substance released ([1]; t 6 min): 84.48%
Release in artificial intestinal juice, percent of the substance released ([1]; t 8 min): 91.49%
Release in artificial intestinal juice, percent of the substance released ([1]; t 10 min): 92.24%
Release in artificial intestinal juice, percent of the substance released ([1]; t 12 min): 96.63%
Release in artificial intestinal juice, percent of the substance released ([1]; t 15 min): 97.34%
Release in artificial intestinal juice, percent of the substance released ([1]; t 30 min): 102.44%
